Measurements from patent US5783587A, “Benzoyl Piperidines/pyrrolidines for enhancing synaptic response” (The Regents of the University of California, priority 1997, dated 1998).

test system: AMPA receptors; test: In vitro physiological testing: field EPSPs in slices of rat hippocampus (CA1); format: cell-based, rat (Sprague-Dawley); conditions: rat hippocampal slices, 15-minute perfusion, paired-pulse, second response
Protocol: The physiological effects of the compounds of this invention were determined by in vitro tests using slices of rat hippocampus according to the following procedure. Excitatory responses (field EPSPs) were measured in hippocampal slices, which are maintained in a recording chamber continuously perfused with artificial cerebrospinal fluid (ACSF). During a 15-minute interval, the perfusion medium was switched to one containing various concentrations of the test compounds. Responses collected immediately before and at the end of drug perfusion were superimposed in order to calculate both the percent increase in EPSP amplitude and the percent increase in the width of the response at one-half the peak height (half-width).
To conduct these tests, the hippocampus was removed from anesthetized, 2-month old Sprague-Dawley rats, and in vitro slices (400 micrometers thick) were prepared and maintained in an interface chamber at 35° C. using conventional techniques. This is the procedure used by Dunwiddie and Lynch, as reported in J. Physiol. 276:353-367 (1978). The chamber was constantly perfused at 0.5 mL/min with ACSF containing (in mM): NaCl, 124; KCl, 3; KH2 PO4, 1.25; MgSO4, 2.5; CaCl2, 3.4; NaHCO3, 26; glucose, 10; and L-ascorbate, 2. A bipolar nichrome stimulating electrode was positioned in the dendritic layer (stratum radiatum) of the hippocampal subfield CA1 close to the border of subfield CA3.
Current pulses (0.1 msec) through the stimulating electrode activated a population of the Schaffer-commissural (SC) fibers, which arise from neurons in the subdivision CA3 and terminate in synapses on the dendrites of CA1 neurons. Activation of these synapses causes them to release the transmitter glutamate. Glutamate binds to the post-synaptic AMPA receptors, which then transiently open an associated ion channel and permit a sodium current to enter the postsynaptic cell. This current results in a voltage in the extracellular space (the field excitatory post-synaptic potential or field "EPSP"), which is recorded by a high impedance recording electrode positioned in the middle of the stratum radiatum of CA1.
With the intensity of the stimulation current adjusted to produce half-maximal EPSPs (typically about 1.5-2.0 mV), paired stimulation pulses were given every 40 seconds with an interpulse interval of 200 msec. The field EPSPs of the second response were digitized and analyzed to determine amplitude and half-width. If the responses are stable for 15-30 minutes (baseline), test compounds were added to the perfusion lines for a period of about 15 minutes. The perfusion was then changed back to regular ACSF.
Paired-pulse stimulation is used in this type of test because stimulation of the SC fibers in part activates interneurons that generate an inhibitory postsynaptic potential (IPSP) in the pyramidal cells of CA1. This feed-forward IPSP typically sets in after the EPSP reaches its peak. The feed-forward IPSP accelerates the repolarization and shortens the decay phase of the EPSP, and could thereby partially mask the effects of the test compounds. One of the relevant features of the feed-forward IPSP is that it cannot be reactivated for several hundred milliseconds following a stimulation pulse. This phenomenon can be employed to advantage to eliminate IPSP by delivering paired pulses separated by 200 milliseconds and using the second ("primed") response for data analysis.
The field EPSP recorded in field CA1 after stimulation of CA3 axons is known to be mediated by AMPA receptors: the receptors are present in the synapses, as reported by Kessler, et al., Brain Res. 560:337-341 (1991), and drugs that selectively block the receptor selectively block the field EPSP. […] See, for example, Staubli, et al., Psychobiology 18:377-381 (1990); Xiao, et al., Hippocampus 1:373-380 (1991); and Staubli, et al., Hippocampus 2:49-58 (1992). […]

Structure (SMILES)	estimated concentration required to increase the amplitude of the EPSP to 25% above baseline (+25% Amplitude) [mM]	estimated concentration required to increase the half-width of the EPSP by 50% (+50% Half-Width) [mM]
COCc1ccc2c(c1)OC1CCCN1C2=O (racemic) [Compound VI, (R, S)-6-Methoxymethyl-2,3-dihydro-1H-pyrrolo[2,1-b][1,3]benzoxazine-9(3aH)-one]	0.1	0.2
COCc1ccc2c(c1)C(=O)N1CCCC1O2 (racemic) [Compound VII, (R,S)-7-Methoxymethyl-2,3-dihydro-1H-pyrrolo[2,1-b][1,3]benzoxazine-9(3aH)-one]	0.3	0.2
COCc1ccc(C(=O)N2CCCCC2)cc1 [Compound I, 1-(4'-Methoxymethylbenzoyl)piperidine]	0.3	0.3
COCc1cccc(C(=O)N2CCCCC2)c1 [Compound II, 1-(3'-Methoxymethylbenzoyl)piperidine]	0.3	> 1
CCOCc1ccc(C(=O)N2CCCCC2)cc1 [Compound III, 1-(4'-Ethoxymethylbenzoyl)piperidine]	> 1	0.2
O=C(c1ccc(CO)cc1)N1CCCCC1 [Compound IV, 1-(4'-Hydroxymethylbenzoyl)piperidine]	1	> 1
O=C(c1ccc(COc2ccc3c(c2)OCO3)cc1)N1CCCCC1 [Compound V, 1-(4'-(3",4"-Methylenedioxyphenoxy)-methylbenzoyl)piperidine]	0.05	> 0.1

test system: not given; test: not given; conditions: following peripheral administration in humans; cited from earlier work

Structure (SMILES)	fraction of drug converted to anisoyl-GABA
COc1ccc(C(=O)N2CCCC2=O)cc1 [aniracetam, N-anisoyl-2-pyrrolidinone]	about 80%
